Measured values as given in ChEMBL document CHEMBL5303762, “Data for DCP probe BI-8668” (2023).

Key:
[1] = target: D(2) dopamine receptor (Homo sapiens) (UniProt P14416); conditions: Compound concentration 10.0 uM
[2] = target: T1, Muscarinic acetylcholine receptor M2 (Homo sapiens) (UniProt P08172); test: M2(H)ANTAG Eurofins SafetyScreen44 (BI); conditions: filed as antagonist, Compound concentration 10.0 uM
T1 sequence (whole entry): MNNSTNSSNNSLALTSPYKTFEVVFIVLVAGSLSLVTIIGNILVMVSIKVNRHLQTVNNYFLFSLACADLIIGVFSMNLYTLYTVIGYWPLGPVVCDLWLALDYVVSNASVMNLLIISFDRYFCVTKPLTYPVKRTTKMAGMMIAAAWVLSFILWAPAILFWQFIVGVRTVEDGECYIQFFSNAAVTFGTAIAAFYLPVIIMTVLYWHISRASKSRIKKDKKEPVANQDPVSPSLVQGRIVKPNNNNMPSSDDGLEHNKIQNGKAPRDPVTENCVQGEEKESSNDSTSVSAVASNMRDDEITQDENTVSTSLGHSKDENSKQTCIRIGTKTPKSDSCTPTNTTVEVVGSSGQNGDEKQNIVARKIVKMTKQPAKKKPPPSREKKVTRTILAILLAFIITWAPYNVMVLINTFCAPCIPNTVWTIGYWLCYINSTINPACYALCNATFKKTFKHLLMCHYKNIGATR

[3] = target: D(3) dopamine receptor (Homo sapiens) (UniProt P35462); conditions: Compound concentration 10.0 uM
D(3) dopamine receptor (Homo sapiens), sequence (P35462 whole entry): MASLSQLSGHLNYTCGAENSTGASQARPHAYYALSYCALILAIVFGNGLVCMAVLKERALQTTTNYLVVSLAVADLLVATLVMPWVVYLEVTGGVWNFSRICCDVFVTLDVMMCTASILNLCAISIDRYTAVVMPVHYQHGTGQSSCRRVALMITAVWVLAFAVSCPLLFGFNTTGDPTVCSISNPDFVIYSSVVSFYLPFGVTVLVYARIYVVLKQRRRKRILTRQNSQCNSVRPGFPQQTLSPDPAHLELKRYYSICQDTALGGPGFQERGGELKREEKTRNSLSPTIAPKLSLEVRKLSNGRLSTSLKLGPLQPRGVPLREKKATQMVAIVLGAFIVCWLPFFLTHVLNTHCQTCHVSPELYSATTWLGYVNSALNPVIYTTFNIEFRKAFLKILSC

[4] = target: 5-hydroxytryptamine receptor 2B (Homo sapiens) (UniProt P41595); conditions: Compound concentration 10.0 uM
5-hydroxytryptamine receptor 2B (Homo sapiens), sequence (P41595 whole entry): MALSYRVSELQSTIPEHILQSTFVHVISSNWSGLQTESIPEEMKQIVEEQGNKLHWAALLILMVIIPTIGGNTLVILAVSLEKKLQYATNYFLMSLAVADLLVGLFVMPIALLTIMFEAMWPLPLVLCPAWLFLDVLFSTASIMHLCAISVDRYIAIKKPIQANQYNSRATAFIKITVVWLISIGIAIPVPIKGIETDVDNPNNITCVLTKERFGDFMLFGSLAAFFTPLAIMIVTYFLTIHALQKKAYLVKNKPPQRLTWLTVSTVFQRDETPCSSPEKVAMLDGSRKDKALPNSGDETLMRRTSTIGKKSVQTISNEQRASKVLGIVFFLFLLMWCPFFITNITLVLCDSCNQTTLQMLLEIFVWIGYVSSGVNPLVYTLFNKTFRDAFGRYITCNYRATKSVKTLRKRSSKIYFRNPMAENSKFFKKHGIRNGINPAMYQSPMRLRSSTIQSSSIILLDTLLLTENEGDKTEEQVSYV

[5] = target: Alpha-2B adrenergic receptor (Homo sapiens) (UniProt P18089); conditions: Compound concentration 10.0 uM
Alpha-2B adrenergic receptor (Homo sapiens), sequence (P18089 whole entry): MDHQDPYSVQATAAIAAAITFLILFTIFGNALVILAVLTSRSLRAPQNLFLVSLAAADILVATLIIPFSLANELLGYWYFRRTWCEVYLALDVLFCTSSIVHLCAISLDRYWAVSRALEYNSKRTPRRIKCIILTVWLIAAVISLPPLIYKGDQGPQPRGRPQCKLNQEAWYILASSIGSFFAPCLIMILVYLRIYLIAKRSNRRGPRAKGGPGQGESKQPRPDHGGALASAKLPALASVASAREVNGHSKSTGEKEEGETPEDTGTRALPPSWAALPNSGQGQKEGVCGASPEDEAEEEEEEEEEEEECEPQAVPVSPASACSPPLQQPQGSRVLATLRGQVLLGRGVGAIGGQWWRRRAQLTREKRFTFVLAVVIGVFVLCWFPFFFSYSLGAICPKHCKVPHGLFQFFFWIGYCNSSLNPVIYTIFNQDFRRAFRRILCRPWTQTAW

[6] = target: Muscarinic acetylcholine receptor M3 (Homo sapiens) (UniProt P20309); test: M3(H)ANTAG Eurofins SafetyScreen44 (BI); conditions: filed as antagonist, Compound concentration 10.0 uM
Muscarinic acetylcholine receptor M3 (Homo sapiens), sequence (P20309 whole entry, looked up): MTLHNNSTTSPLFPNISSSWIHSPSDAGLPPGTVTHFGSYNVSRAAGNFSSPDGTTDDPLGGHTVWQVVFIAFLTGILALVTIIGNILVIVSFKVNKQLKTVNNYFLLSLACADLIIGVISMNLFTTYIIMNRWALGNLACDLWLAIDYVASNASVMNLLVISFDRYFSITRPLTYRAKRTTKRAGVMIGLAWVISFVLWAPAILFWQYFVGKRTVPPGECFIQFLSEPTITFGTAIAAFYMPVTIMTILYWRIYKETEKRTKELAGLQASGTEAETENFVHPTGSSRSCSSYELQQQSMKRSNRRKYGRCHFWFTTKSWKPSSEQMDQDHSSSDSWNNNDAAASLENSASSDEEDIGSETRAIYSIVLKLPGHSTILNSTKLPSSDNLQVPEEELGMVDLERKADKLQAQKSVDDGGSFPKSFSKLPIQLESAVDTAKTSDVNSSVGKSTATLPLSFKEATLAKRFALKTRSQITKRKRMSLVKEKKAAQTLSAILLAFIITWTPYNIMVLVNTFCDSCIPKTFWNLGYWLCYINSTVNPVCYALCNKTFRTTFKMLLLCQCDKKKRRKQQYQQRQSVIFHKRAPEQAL

[7] = target: Histamine H2 receptor (Homo sapiens) (UniProt P25021); conditions: Compound concentration 10.0 uM
Histamine H2 receptor (Homo sapiens), sequence (P25021 whole entry): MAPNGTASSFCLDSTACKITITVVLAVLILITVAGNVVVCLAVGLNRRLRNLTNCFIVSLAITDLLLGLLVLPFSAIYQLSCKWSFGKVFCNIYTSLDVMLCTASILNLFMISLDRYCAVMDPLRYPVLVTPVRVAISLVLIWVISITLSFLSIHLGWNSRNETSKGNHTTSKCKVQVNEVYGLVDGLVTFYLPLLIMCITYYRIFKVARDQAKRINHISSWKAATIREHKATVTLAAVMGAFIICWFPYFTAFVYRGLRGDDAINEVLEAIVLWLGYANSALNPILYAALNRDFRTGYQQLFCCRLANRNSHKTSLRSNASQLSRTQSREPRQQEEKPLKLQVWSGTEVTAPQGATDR

[8] = target: Histamine H4 receptor (Homo sapiens) (UniProt Q9H3N8); conditions: Compound concentration 10.0 uM
Histamine H4 receptor (Homo sapiens), sequence (Q9H3N8 whole entry): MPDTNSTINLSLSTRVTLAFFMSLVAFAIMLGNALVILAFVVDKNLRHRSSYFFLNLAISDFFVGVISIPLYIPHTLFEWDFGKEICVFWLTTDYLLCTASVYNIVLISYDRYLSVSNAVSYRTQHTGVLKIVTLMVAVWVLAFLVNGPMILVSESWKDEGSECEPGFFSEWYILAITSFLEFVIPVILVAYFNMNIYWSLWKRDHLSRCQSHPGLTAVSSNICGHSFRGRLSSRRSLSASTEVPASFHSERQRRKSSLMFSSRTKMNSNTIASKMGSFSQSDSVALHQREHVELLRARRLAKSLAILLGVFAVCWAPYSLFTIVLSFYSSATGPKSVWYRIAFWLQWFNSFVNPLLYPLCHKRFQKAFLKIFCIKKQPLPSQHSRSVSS

[9] = target: Sodium-dependent dopamine transporter (Homo sapiens) (UniProt Q01959); conditions: Compound concentration 10.0 uM
Sodium-dependent dopamine transporter (Homo sapiens), sequence (Q01959 whole entry): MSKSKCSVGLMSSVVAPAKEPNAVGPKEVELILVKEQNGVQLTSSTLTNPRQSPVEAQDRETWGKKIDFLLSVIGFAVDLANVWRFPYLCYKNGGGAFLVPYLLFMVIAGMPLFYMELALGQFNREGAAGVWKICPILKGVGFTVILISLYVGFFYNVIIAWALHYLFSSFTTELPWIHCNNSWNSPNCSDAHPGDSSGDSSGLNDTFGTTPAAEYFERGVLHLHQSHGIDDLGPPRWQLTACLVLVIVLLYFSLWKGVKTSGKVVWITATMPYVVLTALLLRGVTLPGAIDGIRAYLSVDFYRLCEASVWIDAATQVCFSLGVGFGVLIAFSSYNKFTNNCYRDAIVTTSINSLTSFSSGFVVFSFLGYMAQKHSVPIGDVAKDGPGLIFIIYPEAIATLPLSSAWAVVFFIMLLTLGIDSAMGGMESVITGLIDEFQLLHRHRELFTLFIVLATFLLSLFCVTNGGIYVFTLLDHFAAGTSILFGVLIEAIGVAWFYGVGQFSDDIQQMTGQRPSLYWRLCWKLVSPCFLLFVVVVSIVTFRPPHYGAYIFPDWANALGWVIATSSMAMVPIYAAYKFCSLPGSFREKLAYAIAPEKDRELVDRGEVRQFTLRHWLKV

[10] = target: D(4) dopamine receptor (Homo sapiens) (UniProt P21917); conditions: Compound concentration 10.0 uM
D(4) dopamine receptor (Homo sapiens), sequence (P21917 whole entry): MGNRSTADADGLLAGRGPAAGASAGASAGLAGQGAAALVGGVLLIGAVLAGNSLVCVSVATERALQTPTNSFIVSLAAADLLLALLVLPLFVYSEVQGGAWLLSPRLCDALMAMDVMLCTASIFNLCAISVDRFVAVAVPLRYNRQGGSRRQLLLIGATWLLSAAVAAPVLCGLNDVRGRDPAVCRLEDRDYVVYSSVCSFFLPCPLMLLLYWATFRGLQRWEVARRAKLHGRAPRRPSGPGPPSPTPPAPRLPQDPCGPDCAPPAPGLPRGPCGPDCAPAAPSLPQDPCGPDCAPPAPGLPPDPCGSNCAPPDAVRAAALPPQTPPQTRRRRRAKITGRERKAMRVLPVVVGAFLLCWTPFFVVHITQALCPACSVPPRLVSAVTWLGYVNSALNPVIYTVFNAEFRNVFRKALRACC

[11] = species: Rattus norvegicus; conditions: Compound concentration 10.0 uM
[12] = target: Cannabinoid receptor 1 (Homo sapiens) (UniProt P21554); test: CB1/CENTR/H Eurofins SafetyScreen44 (BI); conditions: Compound concentration 10.0 uM
[13] = target: Sigma intracellular receptor 2 (Homo sapiens) (UniProt Q5BJF2); conditions: Compound concentration 10.0 uM
Sigma intracellular receptor 2 (Homo sapiens), sequence (Q5BJF2 whole entry): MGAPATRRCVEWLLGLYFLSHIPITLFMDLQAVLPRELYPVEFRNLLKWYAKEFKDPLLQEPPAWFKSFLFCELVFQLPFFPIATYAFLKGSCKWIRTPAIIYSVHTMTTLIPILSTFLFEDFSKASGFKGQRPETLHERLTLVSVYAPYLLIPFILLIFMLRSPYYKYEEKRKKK

[14] = target: Amiloride-sensitive sodium channel, ENaC (Mus musculus) (UniProt Q61180+Q9WU38+Q9WU39); test: Inhibition of M-1 water resorption; assay type: functional, cell-based; conditions: M1, concentration not given here
[15] = target: T2, Histamine H3 receptor (Homo sapiens, UniProt Q9Y5N1); conditions: Compound concentration 10.0 uM
T2 sequence (Q9Y5N1 whole entry): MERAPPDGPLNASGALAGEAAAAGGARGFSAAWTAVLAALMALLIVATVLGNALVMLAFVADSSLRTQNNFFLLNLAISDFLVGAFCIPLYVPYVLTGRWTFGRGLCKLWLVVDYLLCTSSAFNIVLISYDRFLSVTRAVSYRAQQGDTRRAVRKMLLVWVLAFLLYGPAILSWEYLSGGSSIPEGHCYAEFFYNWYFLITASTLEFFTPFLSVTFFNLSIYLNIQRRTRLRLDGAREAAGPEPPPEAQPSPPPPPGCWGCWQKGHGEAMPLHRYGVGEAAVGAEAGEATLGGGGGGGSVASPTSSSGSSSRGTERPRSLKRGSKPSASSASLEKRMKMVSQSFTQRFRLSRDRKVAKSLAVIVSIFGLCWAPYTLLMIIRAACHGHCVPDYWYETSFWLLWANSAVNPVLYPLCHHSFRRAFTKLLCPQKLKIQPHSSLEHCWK

[16] = target: T3, 5-hydroxytryptamine receptor 3A (Homo sapiens) (UniProt P46098); conditions: Compound concentration 10.0 uM
T3 sequence (whole entry): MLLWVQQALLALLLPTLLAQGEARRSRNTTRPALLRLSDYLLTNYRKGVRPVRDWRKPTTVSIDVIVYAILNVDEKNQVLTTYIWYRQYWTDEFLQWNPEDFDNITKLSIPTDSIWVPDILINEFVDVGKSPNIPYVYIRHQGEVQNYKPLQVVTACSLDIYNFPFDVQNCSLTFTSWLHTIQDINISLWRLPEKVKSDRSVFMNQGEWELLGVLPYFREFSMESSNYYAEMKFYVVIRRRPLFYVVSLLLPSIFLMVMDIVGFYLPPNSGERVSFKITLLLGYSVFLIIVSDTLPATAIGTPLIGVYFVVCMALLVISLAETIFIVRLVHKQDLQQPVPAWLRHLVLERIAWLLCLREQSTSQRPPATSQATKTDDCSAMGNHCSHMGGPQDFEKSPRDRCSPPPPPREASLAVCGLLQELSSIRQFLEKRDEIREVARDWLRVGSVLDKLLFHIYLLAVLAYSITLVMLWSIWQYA

[17] = target: T4, Alpha-2A adrenergic receptor (Homo sapiens) (UniProt P08913); conditions: Compound concentration 10.0 uM
T4 sequence (whole entry): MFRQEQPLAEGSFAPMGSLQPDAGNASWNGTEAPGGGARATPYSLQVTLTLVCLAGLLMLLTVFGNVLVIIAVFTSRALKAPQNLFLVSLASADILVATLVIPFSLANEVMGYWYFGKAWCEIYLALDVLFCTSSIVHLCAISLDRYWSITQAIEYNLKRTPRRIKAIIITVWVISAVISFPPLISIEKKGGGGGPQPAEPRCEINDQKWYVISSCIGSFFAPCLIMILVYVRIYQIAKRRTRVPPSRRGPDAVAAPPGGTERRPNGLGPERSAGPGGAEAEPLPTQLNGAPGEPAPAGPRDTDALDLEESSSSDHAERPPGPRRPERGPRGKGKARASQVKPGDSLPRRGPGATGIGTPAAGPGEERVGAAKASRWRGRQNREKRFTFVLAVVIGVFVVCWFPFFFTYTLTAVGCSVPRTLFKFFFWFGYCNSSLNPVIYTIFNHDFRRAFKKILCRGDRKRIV

[18] = target: T2, Histamine H3 receptor; test: GPCRScan assay: inhibition of H3; parameters: radioligand conc. used [nm] 0.5 – 1.0, parental cells HEK Flp-In
[19] = target: Kappa-type opioid receptor (Rattus norvegicus) (UniProt P34975); test: KAPPA/R Eurofins SafetyScreen44 (BI); conditions: Compound concentration 10.0 uM
[20] = target: 5-hydroxytryptamine receptor 1B (Homo sapiens) (UniProt P28222); test: 5HT1B(H) Eurofins SafetyScreen44 (BI); conditions: filed as antagonist, Compound concentration 10.0 uM
[21] = target: Prostaglandin G/H synthase 2 (Homo sapiens) (UniProt P35354); test: COX-2 Eurofins SafetyScreen44 (BI); conditions: Compound concentration 10.0 uM
[22] = target: Kappa-type opioid receptor (Homo sapiens) (UniProt P41145); test: KAPPA(KOP)_HU Eurofins SafetyScreen44 (BI); conditions: Compound concentration 10.0 uM

D(2) dopamine receptor (Homo sapiens), sequence (P14416 whole entry): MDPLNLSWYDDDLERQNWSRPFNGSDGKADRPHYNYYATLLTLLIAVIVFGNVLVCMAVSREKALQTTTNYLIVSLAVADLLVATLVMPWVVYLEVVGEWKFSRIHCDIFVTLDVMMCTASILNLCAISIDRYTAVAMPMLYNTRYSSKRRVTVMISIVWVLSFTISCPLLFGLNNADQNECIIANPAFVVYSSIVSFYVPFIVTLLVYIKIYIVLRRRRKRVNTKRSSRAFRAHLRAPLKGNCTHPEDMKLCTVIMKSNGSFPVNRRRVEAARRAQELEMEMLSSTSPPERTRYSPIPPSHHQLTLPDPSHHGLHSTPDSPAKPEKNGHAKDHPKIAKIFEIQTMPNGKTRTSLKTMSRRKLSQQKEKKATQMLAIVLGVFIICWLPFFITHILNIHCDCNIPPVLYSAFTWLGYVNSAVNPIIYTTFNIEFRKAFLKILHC

CCn1c(CNC(=O)c2nc(Cl)cnc2N)[n+](CC)c2ccc(C(=O)N(C)CCN(C)C)cc21
inhibition [1]: -8.76% | residual activity [2]: 91% | inhibition [3]: 8.95% | inhibition [4]: 7.03% | inhibition [5]: 0.45% | residual activity [6]: 96% | inhibition [7]: 27.9% | inhibition [8]: -7.37% | inhibition [9]: 12.4% | inhibition [10]: 7.07% | inhibition [11]: -1.51% | residual activity [12]: 99% | inhibition [13]: -0.91% | inhibition [14]: 81% | inhibition [15]: 85.4% | inhibition [16]: 8.37% | inhibition [17]: 0.56% | Ki ([18]; read-out: Ki): 257 nM | Ki ([18]; read-out: pKi (converted)): 219 nM | residual activity [19]: 101%

CCn1c(CNC(=O)c2ncc(C)nc2N)[n+](CC)c2ccc(C(=O)N(C)CN(C)C)cc21
residual activity [20]: 94% | residual activity [21]: 82% | residual activity [22]: 97%
